Test results taken from patent US12485169B2, “Compounds” (GREY WOLF THERAPEUTICS LIMITED, priority 2018, dated 2025).

Biological target: T1, Purified ERAP1 (37-941)-10His (ERAP1) (Homo sapiens, UniProt Q9NZ08)
T1 construct: Purified ERAP1 (37-941)-10His (ERAP1)
Assay: ERAP1 mediated hydrolysis of an amide substrate (10-mer inhibition assay), biochemical system
Conditions: 10-mer substrate, 23° C., 1 h, excitation 279 nm / emission 355 nm; read-out: IC50 vs Decapeptide WRVYEKC(Dnp)ALK-acid (where Dnp is Dinitrophenyl maleimide) (10-mer)

T1 sequence (Q9NZ08 37-941): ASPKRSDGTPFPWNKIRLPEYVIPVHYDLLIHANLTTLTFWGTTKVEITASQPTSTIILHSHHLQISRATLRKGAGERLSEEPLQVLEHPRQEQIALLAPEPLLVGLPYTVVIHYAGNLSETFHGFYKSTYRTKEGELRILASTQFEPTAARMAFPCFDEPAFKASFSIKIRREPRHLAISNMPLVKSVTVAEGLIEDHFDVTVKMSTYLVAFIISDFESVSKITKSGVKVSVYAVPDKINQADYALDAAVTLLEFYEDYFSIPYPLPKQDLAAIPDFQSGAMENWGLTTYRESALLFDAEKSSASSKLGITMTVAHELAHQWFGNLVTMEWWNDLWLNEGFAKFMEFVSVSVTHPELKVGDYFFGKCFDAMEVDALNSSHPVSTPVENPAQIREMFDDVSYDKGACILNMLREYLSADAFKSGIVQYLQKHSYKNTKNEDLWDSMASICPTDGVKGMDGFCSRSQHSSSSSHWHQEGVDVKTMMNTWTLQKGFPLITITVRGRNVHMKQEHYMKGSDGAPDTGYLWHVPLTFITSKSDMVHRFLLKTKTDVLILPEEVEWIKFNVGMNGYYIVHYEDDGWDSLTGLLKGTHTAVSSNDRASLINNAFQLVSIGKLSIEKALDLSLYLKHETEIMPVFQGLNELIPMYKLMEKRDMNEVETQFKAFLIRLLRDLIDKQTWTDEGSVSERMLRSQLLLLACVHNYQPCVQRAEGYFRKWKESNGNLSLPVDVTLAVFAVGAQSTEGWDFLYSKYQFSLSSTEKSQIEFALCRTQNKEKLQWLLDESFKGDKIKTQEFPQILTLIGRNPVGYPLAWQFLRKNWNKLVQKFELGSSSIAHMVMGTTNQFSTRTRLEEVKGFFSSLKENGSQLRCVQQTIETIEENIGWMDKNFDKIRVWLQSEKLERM

Compound	IC50 [µM]
CS(=O)(=O)c1cc(NS(=O)(=O)c2cc(C(=O)O)ccc2C2CC2)c(N2CCCCC2)cc1Cl [Example 332, 3-(N-(4-chloro-5-(methylsulfonyl)-2-(piperidin-1-yl)phenyl)sulfamoyl)-4-cyclopropylbenzoic acid]	< 0.5
CCc1ccc(C(=O)O)cc1S(=O)(=O)Nc1cc(C(F)(F)F)ccc1N1CC(O)C1 [Example 183, 4-ethyl-3-(N-(2-(3-hydroxyazetidin-1-yl)-5-(trifluoromethyl)phenyl)sulfamoyl)benzoic acid]	> 5
COc1ccc(C(=O)O)cc1S(=O)(=O)Nc1cc(C(F)(F)F)ccc1N1CCCOCC1 [Example 32, 3-(N-(2-(1,4-oxazepan-4-yl)-5-(trifluoromethyl)phenyl)sulfamoyl)-4-methoxybenzoic acid]	< 0.5
CCc1ccc(C(=O)O)cc1S(=O)(=O)Nc1cc(-c2ncco2)ccc1N1CCCCC1 [Example 289, 4-ethyl-3-(N-(5-(oxazol-2-yl)-2-(piperidin-1-yl)phenyl)sulfamoyl)benzoic acid]	< 0.5
O=C(O)c1ccc(C2CC2)c(S(=O)(=O)Nc2cc(-n3cnnn3)ccc2N2CC(O)C2)c1 [Example 325, 4-cyclopropyl-3-(N-(2-(3-hydroxyazetidin-1-yl)-5-(tetrazol-1-yl)phenyl)sulfamoyl)benzoic acid]	< 0.5
CCc1ccc(C(=O)O)cc1S(=O)(=O)Nc1cc(C(F)(F)F)ccc1N1CCCC(F)(F)C1 [Example 204, 3-(N-(2-(3,3-difluoropiperidin-1-yl)-5-(trifluoromethyl)phenyl)sulfamoyl)-4-ethylbenzoic acid]	< 0.5
COc1ccc(C(=O)O)cc1S(=O)(=O)Nc1cc(C(F)(F)F)ccc1N1CCC(O)CC1 [Example 35, 3-(N-(2-(4-hydroxypiperidin-1-yl)-5-(trifluoromethyl)phenyl)sulfamoyl)-4-methoxybenzoic acid]	< 0.5
CCc1ccc(C(=O)O)cc1S(=O)(=O)Nc1cc(-c2cnoc2C)c(F)cc1N1CCCCC1 [Example 304, 4-ethyl-3-(N-(4-fluoro-5-(5-methylisoxazol-4-yl)-2-(piperidin-1-yl)phenyl)sulfamoyl)benzoic acid]	< 0.5
CS(=O)(=O)c1ccc(N2CCC[C@@H](F)C2)c(NS(=O)(=O)c2cc(C(=O)O)ccc2C2CC2)c1 [Example 321, I-4-cyclopropyl-3-(N-(2-(3-fluoropiperidin-1-yl)-5-(methylsulfonyl)phenyl)sulfamoyl)benzoic acid]	< 0.5
CCc1ccc(C(=O)O)cc1S(=O)(=O)Nc1cc(-c2cnc(C)s2)ccc1N1CCCCC1 [Example 282, 4-ethyl-3-(N-(5-(2-methylthiazol-5-yl)-2-(piperidin-1-yl)phenyl)sulfamoyl)benzoic acid]	< 0.5
COc1ccc(C(=O)O)cc1S(=O)(=O)Nc1cc(C(F)(F)F)ccc1N1CCCCC1=O [Example 41, 4-methoxy-3-(N-(2-(2-oxopiperidin-1-yl)-5-(trifluoromethyl)phenyl)sulfamoyl)benzoic acid]	< 0.5
COc1ccc(C(=O)O)cc1S(=O)(=O)Nc1cc(C(F)(F)F)ccc1N1CCCC1 [Example 75, 4-methoxy-3-(N-(2-(pyrrolidin-1-yl)-5-(trifluoromethyl)phenyl)sulfamoyl)benzoic acid]	< 5
C#Cc1ccc(C(=O)O)cc1S(=O)(=O)Nc1cc(C#N)ccc1N1CCCCC1 [Example 338, 3-(N-(5-cyano-2-(piperidin-1-yl)phenyl)sulfamoyl)-4-ethynylbenzoic acid]	> 5
N#Cc1ccc(N2CCC(F)(F)CC2)c(NS(=O)(=O)c2cc(C(=O)O)ccc2C2CC2)c1 [Example 310, 3-(N-(5-cyano-2-(4,4-difluoropiperidin-1-yl)phenyl)sulfamoyl)-4-cyclopropylbenzoic acid]	< 0.5
CCc1ccc(C(=O)O)cc1S(=O)(=O)Nc1cc(-c2cnnn2C)ccc1N1CCCCC1 [Example 274, 4-ethyl-3-(N-(5-(1-methyl-1,2,3-triazol-5-yl)-2-(piperidin-1-yl)phenyl)sulfamoyl)benzoic acid]	< 0.5
CCc1ccc(C(=O)O)cc1S(=O)(=O)Nc1cc(-c2ccnnc2)ccc1N1CCCCC1 [Example 302, 4-ethyl-3-(N-(2-(piperidin-1-yl)-5-(pyridazin-4-yl)phenyl)sulfamoyl)benzoic acid]	< 0.5
N#Cc1cc(NS(=O)(=O)c2cc(C(=O)O)ccc2C2CC2)c(N2CCCCC2)cc1F [Example 324, 3-(N-(5-cyano-4-fluoro-2-(piperidin-1-yl)phenyl)sulfamoyl)-4-cyclopropylbenzoic acid]	< 0.5
CCC1(O)CN(c2ccc(C(F)(F)F)cc2NS(=O)(=O)c2cc(C(=O)O)ccc2OC)C1 [Example 189, 3-(N-(2-(3-ethyl-3-hydroxyazetidin-1-yl)-5-(trifluoromethyl)phenyl)sulfamoyl)-4-methoxybenzoic acid]	> 5
COc1ccc(C(=O)O)cc1S(=O)(=O)Nc1cc(C(F)(F)F)ccc1N1CC[C@H](O)C1 [Example 178, (S)-3-(N-(2-(3-hydroxypyrrolidin-1-yl)-5-(trifluoromethyl)phenyl)sulfamoyl)-4-methoxybenzoic acid]	< 5

Compound	IC50 [µM]
COc1ccc(C(=O)O)cc1S(=O)(=O)Nc1cc(C(F)(F)F)ccc1N1CC(O)(C(F)(F)F)C1 [Example 26, 3-(N-(2-(3-hydroxy-3-(trifluoromethyl)azetidin-1-yl)-5-(trifluoromethyl)phenyl)sulfamoyl)-4-methoxybenzoic acid]	< 0.5
COc1ccc(C(=O)O)cc1S(=O)(=O)Nc1cc(C(F)(F)F)ccc1N1CCC[C@@H](O)C1 [Example 243, I-3-(N-(2-(3-hydroxypiperidin-1-yl)-5-(trifluoromethyl)phenyl)sulfamoyl)-4-methoxybenzoic acid]	< 0.5
CCOC1CCN(c2ccc(C(F)(F)F)cc2NS(=O)(=O)c2cc(C(=O)O)ccc2OC)CC1 [Example 180, 3-(N-(2-(4-ethoxypiperidin-1-yl)-5-(trifluoromethyl)phenyl)sulfamoyl)-4-methoxybenzoic acid]	< 0.5
COc1ccc(C(=O)O)cc1S(=O)(=O)Nc1cc(C(F)(F)F)ccc1N1CCCCC1(C)C [Example 31, 3-(N-(2-(2,2-dimethylpiperidin-1-yl)-5-(trifluoromethyl)phenyl)sulfamoyl)-4-methoxybenzoic acid]	< 0.5
CCc1ccc(C(=O)O)cc1S(=O)(=O)Nc1cc(C(F)(F)F)ccc1N1CCCC[C@H]1C [Example 236, I-4-ethyl-3-(N-(2-(2-methylpiperidin-1-yl)-5-(trifluoromethyl)phenyl)sulfamoyl)benzoic acid]	< 0.5
CC(C)c1ccc(C(=O)O)cc1S(=O)(=O)Nc1cc(C(F)(F)F)ccc1N1CCCCCC1 [Example 55, 3-(N-(2-(azepan-1-yl)-5-(trifluoromethyl)phenyl)sulfamoyl)-4-isopropylbenzoic acid]	< 0.5
CCc1ccc(C(=O)O)cc1S(=O)(=O)Nc1cc(-c2cnoc2C)c(C)cc1N1CCCCC1 [Example 303, 4-ethyl-3-(N-(4-methyl-5-(5-methylisoxazol-4-yl)-2-(piperidin-1-yl)phenyl)sulfamoyl)benzoic acid]	< 0.5
CCc1ccc(C(=O)O)cc1S(=O)(=O)Nc1cc(C(F)(F)F)ccc1N1CCC[C@@H](O)C1 [Example 249, I-4-ethyl-3-(N-(2-(3-hydroxypiperidin-1-yl)-5-(trifluoromethyl)phenyl)sulfamoyl)benzoic acid]	< 0.5
CCc1ccc(C(=O)O)cc1S(=O)(=O)Nc1cc(-n2cnnn2)ccc1N1CCCCC1 [Example 242, 4-ethyl-3-(N-(2-(piperidin-1-yl)-5-(tetrazol-1-yl)phenyl)sulfamoyl)benzoic acid]	< 0.5
CCc1ccc(C(=O)O)cc1S(=O)(=O)Nc1cc(C(F)(F)F)ccc1N1CCC(F)CC1 [Example 205, 4-ethyl-3-(N-(2-(4-fluoropiperidin-1-yl)-5-(trifluoromethyl)phenyl)sulfamoyl)benzoic acid]	< 0.5
CCc1ccc(C(=O)O)cc1S(=O)(=O)Nc1cc(S(C)(=O)=O)ccc1N1CCC[C@@H](F)C1 [Example 262, I-4-ethyl-3-(N-(2-(3-fluoropiperidin-1-yl)-5-(methylsulfonyl)phenyl)sulfamoyl)benzoic acid]	< 0.5
COc1ccc(C(=O)O)cc1S(=O)(=O)Nc1cc(-c2nn[nH]n2)ccc1N1CCCCC1 [Example 259, 4-methoxy-3-(N-(2-(piperidin-1-yl)-5-(tetrazol-5-yl)phenyl)sulfamoyl)benzoic acid]	< 0.5
CCc1ccc(C(=O)O)cc1S(=O)(=O)Nc1cc(C(F)(F)F)c(Br)cc1N1CCCCC1 [Example 294, 3-(N-(4-bromo-2-(piperidin-1-yl)-5-(trifluoromethyl)phenyl)sulfamoyl)-4-ethylbenzoic acid]	< 0.5
COc1ccc(C(=O)O)cc1S(=O)(=O)Nc1cc(C(F)(F)F)ccc1N1CCC(OC)CC1 [Example 181, 4-methoxy-3-(N-(2-(4-methoxypiperidin-1-yl)-5-(trifluoromethyl)phenyl)sulfamoyl)benzoic acid]	< 0.5
CCc1ccc(C(=O)O)cc1S(=O)(=O)Nc1cc(S(C)(=O)=O)ccc1N1CCCCC1 [Example 241, 4-ethyl-3-(N-(5-(methylsulfonyl)-2-(piperidin-1-yl)phenyl)sulfamoyl)benzoic acid]	< 0.5
CCc1ccc(C(=O)O)cc1S(=O)(=O)Nc1cc(-c2cncn2C)ccc1N1CCCCC1 [Example 287, 4-ethyl-3-(N-(5-(1-methylimidazol-5-yl)-2-(piperidin-1-yl)phenyl)sulfamoyl)benzoic acid]	< 0.5
COc1ccc(C(=O)O)cc1S(=O)(=O)Nc1cc(C(F)(F)F)ccc1N1CCC(C)(O)C1 (stereo not shown) [Example 20, 3-(N-(2-(3-hydroxy-3-methylpyrrolidin-1-yl)-5-(trifluoromethyl)phenyl)sulfamoyl)-4-methoxybenzoic acid]	< 5
COc1ccc(C(=O)O)cc1S(=O)(=O)Nc1cc(-n2cnnn2)ccc1N1CCCCC1 [Example 214, 4-methoxy-3-(N-(2-(piperidin-1-yl)-5-(1H-tetrazol-1-yl)phenyl)sulfamoyl)benzoic acid]	< 0.5
